ChEMBL document CHEMBL4673385, “Discovery of Potent Inhibitors of Streptococcus mutans Biofilm with Antivirulence Activity” (ACS Med Chem Lett, 2021)
Converted amounts (≈) assume the structure as drawn. The source made the active and inactive calls. Unless noted, the rule behind the calls is not given here.

Tests used:
Streptococcus mutans = experiment: Bactericidal activity against Streptococcus mutans UA159 assessed as reduction in bacterial growth at 100 uM after 24 hrs; assay type: functional, organism-based
[1] = biological target: T1, Glucosyltransferase-I (Streptococcus mutans serotype c (strain ATCC 700610 / UA159)) (UniProt P08987); experiment: Inhibition of GtfB in Streptococcus mutans UA159 assessed as reduction in glucans level by Coomassie blue dye based SDS-PAGE analysis
T1 sequence (whole entry): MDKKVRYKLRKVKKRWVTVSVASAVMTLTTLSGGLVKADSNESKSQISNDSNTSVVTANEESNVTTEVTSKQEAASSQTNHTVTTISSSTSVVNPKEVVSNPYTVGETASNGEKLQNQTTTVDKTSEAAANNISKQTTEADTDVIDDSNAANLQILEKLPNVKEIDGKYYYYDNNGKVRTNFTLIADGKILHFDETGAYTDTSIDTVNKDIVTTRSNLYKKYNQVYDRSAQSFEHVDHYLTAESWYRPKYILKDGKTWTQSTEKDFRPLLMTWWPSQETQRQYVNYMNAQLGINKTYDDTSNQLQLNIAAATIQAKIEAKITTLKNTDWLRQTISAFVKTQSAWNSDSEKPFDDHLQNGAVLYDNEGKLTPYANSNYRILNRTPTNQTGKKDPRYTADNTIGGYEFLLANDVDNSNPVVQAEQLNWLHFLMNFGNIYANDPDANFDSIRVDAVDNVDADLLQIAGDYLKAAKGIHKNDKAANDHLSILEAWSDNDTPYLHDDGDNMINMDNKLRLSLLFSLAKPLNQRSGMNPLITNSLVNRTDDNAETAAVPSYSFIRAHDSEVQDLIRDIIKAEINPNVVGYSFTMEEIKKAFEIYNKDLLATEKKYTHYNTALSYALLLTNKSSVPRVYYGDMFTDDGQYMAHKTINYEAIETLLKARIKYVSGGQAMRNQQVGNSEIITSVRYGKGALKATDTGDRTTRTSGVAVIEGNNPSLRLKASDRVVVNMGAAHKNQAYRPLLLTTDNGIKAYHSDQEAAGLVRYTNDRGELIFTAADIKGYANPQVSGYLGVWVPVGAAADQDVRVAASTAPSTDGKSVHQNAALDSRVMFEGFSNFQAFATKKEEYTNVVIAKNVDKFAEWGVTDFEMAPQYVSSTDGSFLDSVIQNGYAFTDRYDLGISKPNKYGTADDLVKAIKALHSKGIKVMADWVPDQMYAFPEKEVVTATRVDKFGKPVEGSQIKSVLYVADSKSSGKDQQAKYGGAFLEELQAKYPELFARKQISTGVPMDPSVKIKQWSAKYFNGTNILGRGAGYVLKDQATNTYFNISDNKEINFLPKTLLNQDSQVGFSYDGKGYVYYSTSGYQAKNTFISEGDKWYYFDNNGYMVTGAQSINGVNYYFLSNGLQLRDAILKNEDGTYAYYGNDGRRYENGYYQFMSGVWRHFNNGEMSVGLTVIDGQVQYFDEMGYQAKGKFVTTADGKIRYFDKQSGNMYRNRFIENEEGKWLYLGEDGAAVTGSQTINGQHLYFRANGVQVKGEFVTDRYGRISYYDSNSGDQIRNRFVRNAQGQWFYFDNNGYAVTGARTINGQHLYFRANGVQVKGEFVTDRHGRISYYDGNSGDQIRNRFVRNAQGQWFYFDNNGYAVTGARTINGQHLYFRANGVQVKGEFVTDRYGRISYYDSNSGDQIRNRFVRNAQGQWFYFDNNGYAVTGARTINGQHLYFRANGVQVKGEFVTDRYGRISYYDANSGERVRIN

[2] = biological target: T2, Glucosyltransferase-S (Streptococcus mutans serotype c (strain ATCC 700610 / UA159)) (UniProt P49331); experiment: Inhibition of GtfD in Streptococcus mutans UA159 assessed as reduction in glucans level by Coomassie blue dye based SDS-PAGE analysis
T2 sequence (whole entry): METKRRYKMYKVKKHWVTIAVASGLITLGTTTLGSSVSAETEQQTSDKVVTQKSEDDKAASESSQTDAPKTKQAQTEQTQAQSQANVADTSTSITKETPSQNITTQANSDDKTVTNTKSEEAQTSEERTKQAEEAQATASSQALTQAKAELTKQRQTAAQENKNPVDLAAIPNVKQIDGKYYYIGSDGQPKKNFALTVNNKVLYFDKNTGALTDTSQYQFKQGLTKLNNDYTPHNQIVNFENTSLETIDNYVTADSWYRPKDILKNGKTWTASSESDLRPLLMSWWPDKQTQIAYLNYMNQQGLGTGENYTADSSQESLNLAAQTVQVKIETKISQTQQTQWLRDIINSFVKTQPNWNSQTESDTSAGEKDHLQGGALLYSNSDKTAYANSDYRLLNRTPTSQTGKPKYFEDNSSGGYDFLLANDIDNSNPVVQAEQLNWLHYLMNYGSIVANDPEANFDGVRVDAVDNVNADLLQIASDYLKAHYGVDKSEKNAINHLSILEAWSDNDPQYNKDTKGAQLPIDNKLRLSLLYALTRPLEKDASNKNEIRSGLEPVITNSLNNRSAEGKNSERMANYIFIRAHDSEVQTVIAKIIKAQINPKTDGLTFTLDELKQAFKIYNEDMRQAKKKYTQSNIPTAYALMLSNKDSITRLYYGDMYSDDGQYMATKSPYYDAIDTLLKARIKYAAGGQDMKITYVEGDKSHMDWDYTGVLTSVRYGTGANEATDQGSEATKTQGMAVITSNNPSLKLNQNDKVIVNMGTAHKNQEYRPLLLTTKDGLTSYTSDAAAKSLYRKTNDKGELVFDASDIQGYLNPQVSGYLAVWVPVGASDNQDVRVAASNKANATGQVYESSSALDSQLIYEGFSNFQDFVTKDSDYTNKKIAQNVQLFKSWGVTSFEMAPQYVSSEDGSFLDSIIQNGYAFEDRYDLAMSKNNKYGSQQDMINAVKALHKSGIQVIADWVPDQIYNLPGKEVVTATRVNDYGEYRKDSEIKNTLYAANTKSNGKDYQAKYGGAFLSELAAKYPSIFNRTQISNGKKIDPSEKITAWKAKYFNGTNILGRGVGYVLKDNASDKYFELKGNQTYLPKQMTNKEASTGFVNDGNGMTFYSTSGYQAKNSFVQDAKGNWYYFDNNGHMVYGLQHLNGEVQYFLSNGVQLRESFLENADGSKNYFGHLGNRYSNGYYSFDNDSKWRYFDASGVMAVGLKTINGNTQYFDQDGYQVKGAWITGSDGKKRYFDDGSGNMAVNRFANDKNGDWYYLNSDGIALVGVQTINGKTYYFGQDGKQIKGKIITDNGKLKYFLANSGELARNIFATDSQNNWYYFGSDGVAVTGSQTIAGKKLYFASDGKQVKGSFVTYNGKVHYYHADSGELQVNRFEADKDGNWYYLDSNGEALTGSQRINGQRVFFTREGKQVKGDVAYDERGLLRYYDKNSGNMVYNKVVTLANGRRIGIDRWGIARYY

[3] = Solubility of compound in water; assay type: physicochemical; conditions: water; read-out: solubility

Row | Compound | inhibition [1] | inhibition [2] | solubility [3] | Activity (Streptococcus mutans)
1 | CC(C)(C)OC(=O)NCc1ccccc1NC(=O)c1cnc2ccccc2c1 | Active | Active | 15 µg/mL (≈ 39.7 µM) | inactive
2 | NC(=O)c1ccccc1NC(=O)c1cnc2ccccc2c1 | Active | Active | 5 µg/mL (≈ 17.2 µM) | inactive
3 | O=C(c1ccc(F)cc1)c1ccc(-c2[nH]c(-c3ccc([N+](=O)[O-])cc3O)nc2-c2ccccc2)cc1 | Active | Active | – | –
4 | NC(=O)c1cccc(NC(=O)c2cnc3ccccc3c2)c1 | Active | Active | < 5 µg/mL | inactive

The next lines start with results.

Row | inhibition [1] | inhibition [2] | solubility [3] | Compound | Activity (Streptococcus mutans)
5 | Active | Active | 10 µg/mL (≈ 28.1 µM) | COC(=O)c1ccc(NC(=O)c2cc3cc([N+](=O)[O-])ccc3s2)cc1 | inactive
6 | Active | Active | < 5 µg/mL | CC(C)(C)OC(=O)NCc1ccccc1NC(=O)c1cc2cc([N+](=O)[O-])ccc2s1 | inactive
7 | Active | Active | 10 µg/mL (≈ 29.3 µM) | NC(=O)c1ccccc1NC(=O)c1cc2cc([N+](=O)[O-])ccc2s1 | inactive
